Laboratory results from patent US9149038B2, “4-amino-6-(heterocyclic)picolinates and 6-amino-2-(heterocyclic)pyrimidine-4-carboxylates and their use as herbicides” (Dow AgroSciences LLC, priority 2013, dated 2015).
Read-outs that look alike come from different tables or passages of the source.

Test system: Direct Seeded Rice and weed species
Assay: Postemergence herbicidal activity in direct seeded rice, visual rating after 20-22 days and probit GR20/GR50/GR80/GR90 (Table 14)
Type: in vivo
Conditions: for pest or weed control at 17.5 g/ha / pest or weed control at 35 g/ha / pest or weed control at 70 g/ha: post-emergence, 504 h, postemergence; for pest or weed control at 17.5 g/ha: 17.5 g ai/ha; for pest or weed control at 35 g/ha: 35 g ai/ha; for pest or weed control at 70 g/ha: 70 g ai/ha
Method in brief: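 Rice and weeds grown in loam–sand soil (pH about 8.1) in greenhouse to 2nd–3rd true leaf, then sprayed postemergence at 187 L/ha in acetone/DMSO with 1.25% (v/v) Agri-dex crop oil. Injury rated visually 0–100 after 20-22 days versus untreated plants; GR20, GR50, GR80, GR90 obtained by probit analysis across dose rates.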

[1] = BRAPP (broadleaf signalgrass, Brachiaria platyphylla), read-out: Visual Growth Reduction (%) 21 Days After Application BRAPP
[2] = CYPDI (small-flower flatsedge, Cyperus difformis), read-out: Visual Growth Reduction (%) 21 Days After Application CYPDI
[3] = CYPES (yellow nutsedge, Cyperus esculentus), read-out: Visual Growth Reduction (%) 21 Days After Application CYPES
[4] = CYPIR (rice flatsedge, Cyperus iria), read-out: Visual Growth Reduction (%) 21 Days After Application CYPIR
[5] = DIGSA (large crabgrass, Digitaria sanguinalis), read-out: Visual Growth Reduction (%) 21 Days After Application DIGSA
[6] = ECHCG (barnyardgrass, Echinochloa crus-galli), read-out: Visual Growth Reduction (%) 21 Days After Application ECHCG
[7] = ECHCO (junglerice, Echinochloa colonum), read-out: Visual Growth Reduction (%) 21 Days After Application ECHCO
[8] = LEFCH (Chinese sprangletop, Leptochloa chinensis), read-out: Visual Growth Reduction (%) 21 Days After Application LEFCH
[9] = ORYSJ (Oryza sativa, rice crop), read-out: Visual Growth Reduction (%) 21 Days After Application ORYSJ
[10] = ORYSK (Oryza sativa, rice crop), read-out: Visual Growth Reduction (%) 21 Days After Application ORYSK
[11] = SCPJU (Japanese bulrush, Schoenoplectus juncoides Roxb.), read-out: Visual Growth Reduction (%) 21 Days After Application SCPJU
[12] = SEBEX (hemp sesbania, Sesbania exaltata), read-out: Visual Growth Reduction (%) 21 Days After Application SEBEX

With `COc1c(N)nc(-c2ccc3c(c2F)OC(F)(F)O3)nc1C(=O)O` [Compound 66] the “GR50 BRAPP” value (BRAPP (Brachiaria platyphylla), probit analysis, dose for 50 percent growth reduction) was 2 g ai/ha, the “GR80 BRAPP” value (BRAPP (Brachiaria platyphylla), probit analysis, dose for 80 percent growth reduction) was 7 g ai/ha and the “GR90 BRAPP” value (BRAPP (Brachiaria platyphylla), probit analysis, dose for 90 percent growth reduction) was 16 g ai/ha. For the same molecule, the “GR50 CYPDI” value (CYPDI (Cyperus difformis), probit analysis, dose for 50 percent growth reduction) was 0.42 g ai/ha, the “GR80 CYPDI” value (CYPDI (Cyperus difformis), probit analysis, dose for 80 percent growth reduction) was 3 g ai/ha and the “GR90 CYPDI” value (CYPDI (Cyperus difformis), probit analysis, dose for 90 percent growth reduction) was 6 g ai/ha. For the same molecule, the “GR50 CYPES” value (CYPES (Cyperus esculentus), probit analysis, dose for 50 percent growth reduction) was 0.0001 g ai/ha, the “GR80 CYPES” value (CYPES (Cyperus esculentus), probit analysis, dose for 80 percent growth reduction) was 0.0001 g ai/ha and the “GR90 CYPES” value (CYPES (Cyperus esculentus), probit analysis, dose for 90 percent growth reduction) was 0.0001 g ai/ha. The “GR50 CYPIR” value (CYPIR (Cyperus iria), probit analysis, dose for 50 percent growth reduction) was 9 g ai/ha, the “GR80 CYPIR” value (CYPIR (Cyperus iria), probit analysis, dose for 80 percent growth reduction) was 15 g ai/ha and the “GR90 CYPIR” value (CYPIR (Cyperus iria), probit analysis, dose for 90 percent growth reduction) was 19 g ai/ha. The “GR50 DIGSA” value (DIGSA (Digitaria sanguinalis), probit analysis, dose for 50 percent growth reduction) was 2 g ai/ha, the “GR80 DIGSA” value (DIGSA (Digitaria sanguinalis), probit analysis, dose for 80 percent growth reduction) was 21 g ai/ha and the “GR90 DIGSA” value (DIGSA (Digitaria sanguinalis), probit analysis, dose for 90 percent growth reduction) was 77 g ai/ha. The “GR50 ECHCG” value (ECHCG (Echinochloa crus-galli), probit analysis, dose for 50 percent growth reduction) was 3 g ai/ha, the “GR80 ECHCG” value (ECHCG (Echinochloa crus-galli), probit analysis, dose for 80 percent growth reduction) was 7 g ai/ha and the “GR90 ECHCG” value (ECHCG (Echinochloa crus-galli), probit analysis, dose for 90 percent growth reduction) was 12 g ai/ha. The “GR50 ECHCO” value (ECHCO (Echinochloa colonum), probit analysis, dose for 50 percent growth reduction) was 2 g ai/ha, the “GR80 ECHCO” value (ECHCO (Echinochloa colonum), probit analysis, dose for 80 percent growth reduction) was 6 g ai/ha and the “GR90 ECHCO” value (ECHCO (Echinochloa colonum), probit analysis, dose for 90 percent growth reduction) was 11 g ai/ha. The “GR50 LEFCH” value (LEFCH (Leptochloa chinensis), probit analysis, dose for 50 percent growth reduction) was 105 g ai/ha, the “GR80 LEFCH” value (LEFCH (Leptochloa chinensis), probit analysis, dose for 80 percent growth reduction) was 227 g ai/ha and the “GR90 LEFCH” value (LEFCH (Leptochloa chinensis), probit analysis, dose for 90 percent growth reduction) was 339 g ai/ha. The “GR20 ORYSJ” value (ORYSJ (Oryza sativa, rice crop), probit analysis, dose for 20 percent growth reduction) was 2 g ai/ha, the “GR20 ORYSK” value (ORYSK (Oryza sativa, rice crop), probit analysis, dose for 20 percent growth reduction) was 11 g ai/ha and the “GR50 SCPJU” value (SCPJU (Schoenoplectus juncoides Roxb.), probit analysis, dose for 50 percent growth reduction) was 0.0001 g ai/ha. The “GR80 SCPJU” value (SCPJU (Schoenoplectus juncoides Roxb.), probit analysis, dose for 80 percent growth reduction) was 0.0001 g ai/ha, the “GR90 SCPJU” value (SCPJU (Schoenoplectus juncoides Roxb.), probit analysis, dose for 90 percent growth reduction) was 0.0001 g ai/ha and the “GR50 SEBEX” value (SEBEX (Sesbania exaltata), probit analysis, dose for 50 percent growth reduction) was 8 g ai/ha. The “GR80 SEBEX” value (SEBEX (Sesbania exaltata), probit analysis, dose for 80 percent growth reduction) was 19 g ai/ha, the “GR90 SEBEX” value (SEBEX (Sesbania exaltata), probit analysis, dose for 90 percent growth reduction) was 28 g ai/ha and the pest or weed control at 17.5 g/ha [1] was 85 to 94%. For the same molecule, the pest or weed control at 35 g/ha [1] was 95 to 100%, the pest or weed control at 70 g/ha [1] was 95 to 100% and the pest or weed control at 17.5 g/ha [2] was 95 to 100%. It also gave a pest or weed control at 35 g/ha [2] of 95 to 100%, a pest or weed control at 70 g/ha [2] of 95 to 100% and a pest or weed control at 17.5 g/ha [3] of 95 to 100%. The pest or weed control at 35 g/ha [3] was 95 to 100%, the pest or weed control at 70 g/ha [3] was 95 to 100% and the pest or weed control at 17.5 g/ha [4] was 95 to 100%. It also gave a pest or weed control at 35 g/ha [4] of 95 to 100%, a pest or weed control at 70 g/ha [4] of 95 to 100% and a pest or weed control at 17.5 g/ha [5] of 75 to 84%. It also gave a pest or weed control at 35 g/ha [5] of 85 to 94%, a pest or weed control at 70 g/ha [5] of 85 to 94% and a pest or weed control at 17.5 g/ha [6] of 95 to 100%. The pest or weed control at 35 g/ha [6] was 95 to 100%, the pest or weed control at 70 g/ha [6] was 95 to 100% and the pest or weed control at 17.5 g/ha [7] was 95 to 100%. For the same molecule, the pest or weed control at 35 g/ha [7] was 95 to 100%, the pest or weed control at 70 g/ha [7] was 95 to 100% and the pest or weed control at 17.5 g/ha [8] was 0 to 29%. For the same molecule, the pest or weed control at 35 g/ha [8] was 0 to 29%, the pest or weed control at 70 g/ha [8] was 30 to 44% and the pest or weed control at 17.5 g/ha [9] was 60 to 74%. The pest or weed control at 35 g/ha [9] was 85 to 94%, the pest or weed control at 70 g/ha [9] was 85 to 94% and the pest or weed control at 17.5 g/ha [10] was 30 to 44%. It also gave a pest or weed control at 35 g/ha [10] of 60 to 74%, a pest or weed control at 70 g/ha [10] of 85 to 94% and a pest or weed control at 17.5 g/ha [11] of 95 to 100%. For the same molecule, the pest or weed control at 35 g/ha [11] was 95 to 100%, the pest or weed control at 70 g/ha [11] was 95 to 100% and the pest or weed control at 17.5 g/ha [12] was 60 to 74%. It also gave a pest or weed control at 35 g/ha [12] of 95 to 100% and a pest or weed control at 70 g/ha [12] of 95 to 100%.
